According to PMC5218480 (PLoS ONE, 2017):

Tested on: MV-4-11 cells
Test: Gene expression microarray analysis (Affymetrix PrimeView) and GSEA
Assay type: cell-based, human
Parameters: RFU PODN (11730768_x_at) / Fold change /veh PODN (11730768_x_at) / RFU LINC00158 (11744669_a_at) / Fold change /veh LINC00158 (11744669_a_at) / RFU DUSP10 (11751237_a_at) / Fold change /veh DUSP10 (11751237_a_at) / RFU ID3 (11757404_x_at) / Fold change /veh ID3 (11757404_x_at) / RFU PLEKHG5 (11737974_s_at) / Fold change /veh PLEKHG5 (11737974_s_at) / RFU LRRC4B (11730491_at) / Fold change /veh LRRC4B (11730491_at) / RFU GIMAP4 (11747438_a_at) / Fold change /veh GIMAP4 (11747438_a_at) / RFU KRT8 (11758183_x_at) / Fold change /veh KRT8 (11758183_x_at) / RFU CNN1 (11734310_a_at) / Fold change /veh CNN1 (11734310_a_at) / RFU VPS37D (11726825_at) / Fold change /veh VPS37D (11726825_at) / RFU C10orf10 (11716522_x_at) / Fold change /veh C10orf10 (11716522_x_at) / RFU KIR2DL2 /// KIR2DL4 /// KIR2DL5A /// KIR2DL5B /// KIR2DS1 /// KIR2DS2 /// KIR2DS3 /// KIR2DS4 /// KIR3DL3 /// KIR3DL3 /// KIR3DS1 (11738374_at) / Fold change /veh KIR2DL2 /// KIR2DL4 /// KIR2DL5A /// KIR2DL5B /// KIR2DS1 /// KIR2DS2 /// KIR2DS3 /// KIR2DS4 /// KIR3DL3 /// KIR3DL3 /// KIR3DS1 (11738374_at) / RFU C1QL1 (11718748_at) / Fold change /veh C1QL1 (11718748_at) / RFU TMPRSS4 (11747572_a_at) / Fold change /veh TMPRSS4 (11747572_a_at) / RFU HAMP (11756126_x_at) / Fold change /veh HAMP (11756126_x_at) / RFU RNFT2 (11725882_a_at) / Fold change /veh RNFT2 (11725882_a_at) / RFU NR4A2 (11747474_a_at) / Fold change /veh NR4A2 (11747474_a_at) / RFU ABCC12 (11746883_a_at) / Fold change /veh ABCC12 (11746883_a_at) / RFU TMEM136 (11760407_x_at) / Fold change /veh TMEM136 (11760407_x_at) / RFU CLDN22 /// WWC2 (11732394_at) / Fold change /veh CLDN22 /// WWC2 (11732394_at) / RFU HLA-DPB1 (11760878_x_at) / Fold change /veh HLA-DPB1 (11760878_x_at) / RFU SPINT1 (11716480_a_at) / Fold change /veh SPINT1 (11716480_a_at) / RFU GAP43 (11754022_s_at) / Fold change /veh GAP43 (11754022_s_at) / RFU A4GNT (11735810_at) / Fold change /veh A4GNT (11735810_at) / RFU PRB3 (11715151_x_at) / Fold change /veh PRB3 (11715151_x_at) / RFU TUBB4B (11761932_at) / Fold change /veh TUBB4B (11761932_at) / RFU CAPN14 (11732068_a_at) / Fold change /veh CAPN14 (11732068_a_at) / RFU TMCC2 (11721928_a_at) / Fold change /veh TMCC2 (11721928_a_at) / RFU IRGQ (11745062_a_at) / Fold change /veh IRGQ (11745062_a_at) / RFU FAM174B (11720279_a_at) / Fold change /veh FAM174B (11720279_a_at) / RFU TMPRSS4 (11748680_a_at) / Fold change /veh TMPRSS4 (11748680_a_at) / RFU FAM212B (11763350_a_at) / Fold change /veh FAM212B (11763350_a_at) / RFU PLEKHG5 (11743358_a_at) / Fold change /veh PLEKHG5 (11743358_a_at) / RFU ZSCAN30 (11745921_a_at) / Fold change /veh ZSCAN30 (11745921_a_at) / RFU CMKLR1 (11741424_a_at) / Fold change /veh CMKLR1 (11741424_a_at) / RFU LOC101060620 /// MAPK8IP1 (11723275_at) / Fold change /veh LOC101060620 /// MAPK8IP1 (11723275_at) / RFU SPTSSB (11747773_x_at) / Fold change /veh SPTSSB (11747773_x_at) / RFU PRSS12 (11739890_at) / Fold change /veh PRSS12 (11739890_at) / RFU BIN1 (11741810_x_at) / Fold change /veh BIN1 (11741810_x_at) / RFU WNT11 (11732464_a_at) / Fold change /veh WNT11 (11732464_a_at) / RFU C10orf10 (11716521_a_at) / Fold change /veh C10orf10 (11716521_a_at) / RFU C5orf56 (11738089_at) / Fold change /veh C5orf56 (11738089_at) / RFU CYB561 (11721691_x_at) / Fold change /veh CYB561 (11721691_x_at) / RFU ANKRD19P (11752326_a_at) / Fold change /veh ANKRD19P (11752326_a_at) / RFU OR2T12 /// OR2T33 /// OR2T8 (11738714_s_at) / Fold change /veh OR2T12 /// OR2T33 /// OR2T8 (11738714_s_at) / RFU VCAN (11748164_a_at) / Fold change /veh VCAN (11748164_a_at) / RFU JSRP1 (11732532_at) / Fold change /veh JSRP1 (11732532_at) / RFU KRTAP10-11 (11738290_x_at) / Fold change /veh KRTAP10-11 (11738290_x_at) / RFU MYO3A (11730013_a_at) / Fold change /veh MYO3A (11730013_a_at) / RFU EBF3 (11725865_a_at) / Fold change /veh EBF3 (11725865_a_at) / RFU CAMK2N1 (11719241_x_at) / Fold change /veh CAMK2N1 (11719241_x_at) / RFU C5orf56 (11738088_a_at) / Fold change /veh C5orf56 (11738088_a_at) / RFU OLFML3 (11715873_a_at) / Fold change /veh OLFML3 (11715873_a_at) / RFU LOC100653217 /// NTM (11731650_a_at) / Fold change /veh LOC100653217 /// NTM (11731650_a_at) / RFU MAPK11 (11762145_a_at) / Fold change /veh MAPK11 (11762145_a_at) / RFU FIZ1 (11724087_x_at) / Fold change /veh FIZ1 (11724087_x_at) / RFU OASL (11726364_x_at) / Fold change /veh OASL (11726364_x_at) / RFU SOX15 (11748057_x_at) / Fold change /veh SOX15 (11748057_x_at) / RFU CD79A (11719716_a_at) / Fold change /veh CD79A (11719716_a_at) / RFU HIST1H1D (11736915_at) / Fold change /veh HIST1H1D (11736915_at) / RFU CASKIN2 (11723855_a_at) / Fold change /veh CASKIN2 (11723855_a_at) / RFU LOC730098 (11760151_x_at) / Fold change /veh LOC730098 (11760151_x_at) / RFU OR4N2 (11742367_at) / Fold change /veh OR4N2 (11742367_at) / RFU PRRT2 (11749266_a_at) / Fold change /veh PRRT2 (11749266_a_at) / RFU SNX32 (11753110_a_at) / Fold change /veh SNX32 (11753110_a_at) / RFU CDHR5 (11726645_a_at) / Fold change /veh CDHR5 (11726645_a_at) / RFU RCAN1 (11760418_a_at) / Fold change /veh RCAN1 (11760418_a_at) / RFU FAM167A (11723789_a_at) / Fold change /veh FAM167A (11723789_a_at) / RFU FAM26E (11764081_at) / Fold change /veh FAM26E (11764081_at) / RFU ISYNA1 (11749810_s_at) / Fold change /veh ISYNA1 (11749810_s_at) / RFU ACY1 (11761880_at) / Fold change /veh ACY1 (11761880_at) / RFU 11764098_at / Fold change /veh 11764098_at / RFU SAMD14 (11745864_x_at) / Fold change /veh SAMD14 (11745864_x_at) / RFU NPB (11741838_a_at) / Fold change /veh NPB (11741838_a_at) / RFU TMPRSS6 (11731388_a_at) / Fold change /veh TMPRSS6 (11731388_a_at) / RFU KRTAP10-2 (11738614_at) / Fold change /veh KRTAP10-2 (11738614_at) / RFU ARHGAP8 /// PRR5-ARHGAP8 (11727945_x_at) / Fold change /veh ARHGAP8 /// PRR5-ARHGAP8 (11727945_x_at) / RFU KRTAP5-7 /// NADSYN1 (11734609_at) / Fold change /veh KRTAP5-7 /// NADSYN1 (11734609_at) / RFU RASL12 (11751679_a_at) / Fold change /veh RASL12 (11751679_a_at) / RFU CDKN2B (11736163_a_at) / Fold change /veh CDKN2B (11736163_a_at) / RFU PRF1 (11729649_at) / Fold change /veh PRF1 (11729649_at) / RFU, ZNF638 /// ZNF638-IT1 / Fold change vs veh, ZNF638 /// ZNF638-IT1 / RFU, PANK3 / Fold change vs veh, PANK3 / RFU, SH3YL1 / Fold change vs veh, SH3YL1 / RFU, ZEB2 / Fold change vs veh, ZEB2 / RFU, NRIP1 / Fold change vs veh, NRIP1 / RFU, PTTG1IP / Fold change vs veh, PTTG1IP / RFU, CAPN2 / Fold change vs veh, CAPN2 / RFU, MED14 / Fold change vs veh, MED14 / RFU, SNORA58 / Fold change vs veh, SNORA58 / RFU, C1orf63 / Fold change vs veh, C1orf63 / RFU, LRRFIP1 / Fold change vs veh, LRRFIP1 / RFU, NDUFAF7 / Fold change vs veh, NDUFAF7 / RFU, SLC12A2 / Fold change vs veh, SLC12A2 / RFU, IBTK / Fold change vs veh, IBTK / RFU, ESF1 / Fold change vs veh, ESF1 / Fold change vs veh, TMEM50B / RFU, TAOK1 / Fold change vs veh, TAOK1 / RFU, ACBD3 / Fold change vs veh, ACBD3 / RFU, TMA16 / Fold change vs veh, TMA16 / RFU, RWDD3 / Fold change vs veh, RWDD3 / RFU, BCAT1 / Fold change vs veh, BCAT1 / RFU, EDEM3 / Fold change vs veh, EDEM3 / RFU, TMEM33 / Fold change vs veh, TMEM33 / RFU, WDR75 / Fold change vs veh, WDR75 / RFU, AHCTF1 / Fold change vs veh, AHCTF1 / RFU, TFRC / Fold change vs veh, TFRC / RFU, ZDHHC17 / Fold change vs veh, ZDHHC17 / RFU, NOM1 / Fold change vs veh, NOM1 / RFU, ARL8B / Fold change vs veh, ARL8B / RFU, ZBTB11 / Fold change vs veh, ZBTB11 / RFU, TAMM41 / Fold change vs veh, TAMM41 / RFU, KIAA1704 /// LOC100996395 / Fold change vs veh, KIAA1704 /// LOC100996395 / RFU, ING1 / Fold change vs veh, ING1 / RFU, TRMT61B / Fold change vs veh, TRMT61B / RFU, FUBP3 / Fold change vs veh, FUBP3 / RFU, TP53 / Fold change vs veh, TP53 / RFU, TNKS2 / Fold change vs veh, TNKS2 / RFU, ZFP14 / Fold change vs veh, ZFP14 / RFU, ACTR2 / Fold change vs veh, ACTR2 / RFU, PPP3R1 / Fold change vs veh, PPP3R1 / RFU, PIK3R1 / Fold change vs veh, PIK3R1 / RFU, HNRNPA1 / Fold change vs veh, HNRNPA1 / RFU, RNF170 / Fold change vs veh, RNF170 / RFU, ZNF28 / Fold change vs veh, ZNF28 / RFU, RNGTT / Fold change vs veh, RNGTT / RFU, OGT / Fold change vs veh, OGT / RFU, BRD1 / Fold change vs veh, BRD1 / RFU, MARS / Fold change vs veh, MARS / RFU, ZNF655 / Fold change vs veh, ZNF655 / RFU, FAHD1 / Fold change vs veh, FAHD1 / RFU, BDP1 / Fold change vs veh, BDP1 / RFU, LRRCC1 / Fold change vs veh, LRRCC1 / RFU, ARID1A / Fold change vs veh, ARID1A / RFU, ZNF146 / Fold change vs veh, ZNF146 / RFU, ZNF330 / Fold change vs veh, ZNF330 / RFU, GPN3 / Fold change vs veh, GPN3 / RFU, C9orf123 / Fold change vs veh, C9orf123 / RFU, N4BP2L2 / Fold change vs veh, N4BP2L2 / RFU, ARFIP1 / Fold change vs veh, ARFIP1 / RFU, FAM179B / Fold change vs veh, FAM179B / RFU, BCL10 / Fold change vs veh, BCL10 / RFU, UHRF1BP1L / Fold change vs veh, UHRF1BP1L / RFU, BET1 / Fold change vs veh, BET1 / RFU, CNOT2 / Fold change vs veh, CNOT2 / RFU, ZNF268 / Fold change vs veh, ZNF268 / Fold change vs veh, ZNF507 / RFU, DGCR2 / Fold change vs veh, DGCR2 / RFU, WDSUB1 / Fold change vs veh, WDSUB1 / Fold change vs veh, HSP90B1 /// MIR3652 / RFU, ADSS / Fold change vs veh, ADSS / RFU, GK / Fold change vs veh, GK / RFU, ZNF148 / Fold change vs veh, ZNF148 / RFU, TAF9 / Fold change vs veh, TAF9 / RFU, SLC1A5 / Fold change vs veh, SLC1A5 / RFU, SLMO2 / Fold change vs veh, SLMO2 / RFU, ABCC4 / Fold change vs veh, ABCC4 / RFU, LOC101060439 /// RAP1B / Fold change vs veh, LOC101060439 /// RAP1B / RFU, RFX7 / Fold change vs veh, RFX7 / RFU, GTPBP10 / Fold change vs veh, GTPBP10 / RFU, CNEP1R1 / Fold change vs veh, CNEP1R1 / RFU, BIVM-ERCC5 /// ERCC5 / Fold change vs veh, BIVM-ERCC5 /// ERCC5 / RFU, ILF3 / Fold change vs veh, ILF3 / RFU 11762660_at / Fold change /veh 11762660_at / RFU VCAN (11757783_s_at) / Fold change /veh VCAN (11757783_s_at) / RFU DDX43 (11728927_at) / Fold change /veh DDX43 (11728927_at) / RFU KRT8 (11758188_x_at) / Fold change /veh KRT8 (11758188_x_at) / RFU NKD1 (11759106_at) / Fold change /veh NKD1 (11759106_at) / RFU SRD5A1 (11742802_a_at) / Fold change /veh SRD5A1 (11742802_a_at) / RFU TPSAB1 /// TPSB2 (11721975_s_at) / Fold change /veh TPSAB1 /// TPSB2 (11721975_s_at) / RFU GSTM3 (11746129_a_at) / Fold change /veh GSTM3 (11746129_a_at) / RFU IL23R (11737362_x_at) / Fold change /veh IL23R (11737362_x_at) / RFU TMEM51 (11727254_a_at) / Fold change /veh TMEM51 (11727254_a_at) / RFU PIWIL2 (11732686_x_at) / Fold change /veh PIWIL2 (11732686_x_at) / RFU ORM1 (11744905_x_at) / Fold change /veh ORM1 (11744905_x_at) / RFU CCDC152 (11743942_at) / Fold change /veh CCDC152 (11743942_at) / RFU ECM1 (11717891_a_at) / Fold change /veh ECM1 (11717891_a_at) / RFU IL23R (11748794_a_at) / Fold change /veh IL23R (11748794_a_at) / RFU TNFAIP8L3 (11732012_x_at) / Fold change /veh TNFAIP8L3 (11732012_x_at) / RFU MBOAT4 (11741988_at) / Fold change /veh MBOAT4 (11741988_at) / RFU 11764193_at / Fold change /veh 11764193_at / RFU TMEM53 (11763286_at) / Fold change /veh TMEM53 (11763286_at) / RFU MAGEB2 (11727129_at) / Fold change /veh MAGEB2 (11727129_at) / RFU TMEM200A (11744735_a_at) / Fold change /veh TMEM200A (11744735_a_at) / RFU CCDC152 (11751479_a_at) / Fold change /veh CCDC152 (11751479_a_at) / RFU FAM211A (11726209_a_at) / Fold change /veh FAM211A (11726209_a_at) / RFU RGS16 (11746705_a_at) / Fold change /veh RGS16 (11746705_a_at) / RFU VCAN (11755009_s_at) / Fold change /veh VCAN (11755009_s_at) / RFU RHOB (11743442_s_at) / Fold change /veh RHOB (11743442_s_at) / RFU RGS16 (11720943_a_at) / Fold change /veh RGS16 (11720943_a_at) / RFU RGS16 (11720944_at) / Fold change /veh RGS16 (11720944_at) / RFU, VPS4B / Fold change vs veh, VPS4B / RFU, CREB1 / Fold change vs veh, CREB1 / RFU, DNAJC13 / Fold change vs veh, DNAJC13 / RFU, GNAQ / Fold change vs veh, GNAQ / RFU, CDK5R1 / Fold change vs veh, CDK5R1 / RFU, ZRANB3 / Fold change vs veh, ZRANB3 / RFU, CUL4A / Fold change vs veh, CUL4A / RFU, CCNY / Fold change vs veh, CCNY / RFU, UFL1 / Fold change vs veh, UFL1 / RFU, COG3 / Fold change vs veh, COG3 / RFU, DIAPH2 / Fold change vs veh, DIAPH2 / RFU, SKA2 / Fold change vs veh, SKA2 / RFU, AFF3 / Fold change vs veh, AFF3 / RFU, LMF1 / Fold change vs veh, LMF1 / RFU, IPO11 / Fold change vs veh, IPO11 / RFU, DFFB / Fold change vs veh, DFFB / RFU, FOXP1 / Fold change vs veh, FOXP1 / RFU, CARD8 / Fold change vs veh, CARD8 / RFU, STRN3 / Fold change vs veh, STRN3 / RFU, ADK / Fold change vs veh, ADK / RFU, RASSF2 / Fold change vs veh, RASSF2 / RFU, WIPF1 / Fold change vs veh, WIPF1 / RFU, LARP1B / Fold change vs veh, LARP1B / RFU, RASA1 / Fold change vs veh, RASA1 / RFU, RB1 / Fold change vs veh, RB1 / RFU, PPFIA1 / Fold change vs veh, PPFIA1 / RFU, MAT2A / Fold change vs veh, MAT2A / RFU, CCT5 / Fold change vs veh, CCT5 / RFU, WDR92 / Fold change vs veh, WDR92 / RFU, CUX1 / Fold change vs veh, CUX1 / RFU, TTC7A / Fold change vs veh, TTC7A / RFU, TMEM135 / Fold change vs veh, TMEM135 / RFU, DEPTOR / Fold change vs veh, DEPTOR / RFU, CPM / Fold change vs veh, CPM / RFU, DNAJB6 / Fold change vs veh, DNAJB6 / RFU, CACNA2D3 / Fold change vs veh, CACNA2D3 / RFU, DTX4 / Fold change vs veh, DTX4 / RFU, TFCP2 / Fold change vs veh, TFCP2 / RFU, GMCL1 /// GMCL1P1 / Fold change vs veh, GMCL1 /// GMCL1P1 / RFU, AEBP2 / Fold change vs veh, AEBP2 / RFU, SNHG1 /// SNORD22 /// SNORD25 /// SNORD26 /// SNORD27 /// SNORD28 /// SNORD29 /// SNORD31 / Fold change vs veh, SNHG1 /// SNORD22 /// SNORD25 /// SNORD26 /// SNORD27 /// SNORD28 /// SNORD29 /// SNORD31 / Fold change (Aza/veh), C12orf56 (ProbeSet 11735607_a_at) / Fold change (ACY-1035/veh), C12orf56 (ProbeSet 11735607_a_at) / Fold change (Aza/veh), FGFR1OP (ProbeSet 11751329_s_at) / Fold change (ACY-1035/veh), FGFR1OP (ProbeSet 11751329_s_at) / Fold change (Aza/veh), VPS36 (ProbeSet 11739960_a_at) / Fold change (ACY-1035/veh), VPS36 (ProbeSet 11739960_a_at) / RFU SYPL1 (11715823_x_at) / Fold change /veh SYPL1 (11715823_x_at) / RFU IGFBP7 (11715501_s_at) / Fold change /veh IGFBP7 (11715501_s_at) / RFU REEP3 (11722064_at) / Fold change /veh REEP3 (11722064_at) / RFU IGLL1 (11728026_x_at) / Fold change /veh IGLL1 (11728026_x_at): dose or concentration left out as unconfirmed
Conditions: ProbeSet 11753234_a_at; LIST B

Nc1ccc(-c2cccs2)cc1NC(=O)c1ccc2c(c1)cc(C1CC1)n2CCN1CCOCC1 [ACY-1035]
RFU, TAMM41: 55.35 RFU
